The results in this text go back to patent publication US5428053A, “1-aminoacetamidopyrroles and 1-amino acetamido-2-(substituted) pyrroles and related compounds” (priority 1993, dated 1995).

Structures can show the parent of a compound that is named as a salt. Where two headings read alike, the source gives them in different places.

The target of series [1] is T1, NMDA associated strychnine-insensitive glycine modulatory site (Rattus norvegicus, UniProt P35439).
T1 construct: cortical tissue obtained from male Sprague Dawley rats; from tissue; host or cells: cortical tissue of male Sprague Dawley rats, crude synaptosomal homogenate, lysed and washed
In words: biochemical. Further details: species or system rat (male Sprague Dawley, cortical tissue). The note with it: for EC50: 2.5 nM [3H]TCP, L-glutamic acid 10^-7 M, read-out: ENHANCEMENT OF [3H]TCP BINDING EC50.

In series [2] the target is T2, glycine binding site associated with the N-methyl-D-aspartate (NMDA) receptor complex (Rattus norvegicus, UniProt P35439).
T2 construct: Cortices of male Wistar rats are dissected over ice; from tissue; host or cells: cerebral cortex of male Wistar rats, Triton X-100 treated washed membranes
In words: biochemical. Further details: species or system rat (male Wistar, cortex). As to the method: This procedure is a modification of the method described by Monahan et al.^1
1. Buffer A: 0.5M Tris maleate, pH 7.4 59.3 g Tris maleate bring to 0.5 l Adjust pH to 7.4 with 0.5M Tris base
2. Buffer B: 50 mM Tris maleate, pH 7.4 Dilute Buffer A 1:10 with distilled water, adjust pH with 50 mM Tris maleate (acid) or 50 mM Tris base.
3. […] Aliquots of 20 μl to the assay tube will give a final concentration of 10^-3 M.
4. […] Aliquots of 50 μl are added to yield a final assay concentration of 10 nM.
6. Triton-X 100, 10% (v/v). A stock solution of Triton-X 100, 10% can be prepared and stored in the refrigerator. Dilute 1.0 ml of Triton-X 100 to 10.0 ml with distilled water. On the day of the assay, the tissue homogenate (1:15 dilution) is preincubated with an aliquot of the 10% solution to give a final concentration of 0.04% (v/v).
Cortices of male Wistar rats are dissected over ice and homogenized in ice-cold 0.32M sucrose (1:15 w/v) for 30 seconds with a Tissumizer setting at 70. Three cortices are pooled for one preparation. The homogenate is centrifuged at 1,000 g for 10 minutes. The supernatant is centrifuged at 20,000 g for 20 minutes. Resuspend the pellet in 15 volumes of ice-cold distilled water (Tissumizer setting 70, 15 sec) and spin at 7,600 g for 20 minutes. Save the supernatant, swirl off the upper buffy layer of the pellet and add to the supernatant. Centrifuge the supernatant at 48,000 g for 20 minutes. Resuspend the pellet with 15 volumes of cold distilled water and centrifuge. Discard the supernatant and store the pellet at -70° C.
On the day of the assay, resuspend the pellet in 15 volumes ice-cold 50 mM Tris maleate, pH 7.4. Preincubate the homogenate with Triton-X in a final concentration of 0.04% (v/v) for 30 minutes at 37° C. with agitation. Centrifuge the suspension at 48,000 g for 20 minutes. Wash the pellet an additional 3 times by resuspension with cold buffer and centrifugation. The final pellet is resuspended in a volume 25 times the original net weight.
1. Prepare assay tubes in triplicate.
50 μl Buffer A, 0.5M Tris maleate, pH 7.4
or appropriate concentration of inhibitor
500 μl Tissue homogenate
2. Following the addition of the tissue, the tubes are incubated for 20 minutes in an ice-bath at 0°-4° C. Terminate the binding by centrifugation for 20 minutes. Return the tubes to ice. Aspirate and discard the supernatant. Carefully rinse the pellet twice with 1 ml ice-cold buffer, avoiding disruption of the pellet. Transfer the pellet to scintillation vials by vortexing the pellet with 2 ml of scintillation fluid, rinse the tubes twice with 2 ml and add an additional 4 ml of scintillation fluid.
3. […] IC50 values for the competing compound are calculated by log-probit analysis of the data.

A short description of series [3]: Enhancement of step-down passive avoidance in rats. It counts as in vivo, rat (male Sprague Dawley). The conditions noted are these: ip, 30 min prior, 24 hrs after acquisition. As to the method:
In this assay, rats step off a wooden platform and subsequently receive a low-level foot shock. After 24 hours, the rats are observed for their ability to acquire and remember a passive avoidance behavior, that is, to stay on the platform. Male Sprague Dawley rats (Charles River) weighing 275-325 g were used in the passive avoidance procedure. Following a 11/2 week acclimation to the vivarium (5 rats per cage) where food and water were available ad libitum, rats were transported to the laboratory on day 1 of testing and acclimated to the experimental area and the investigator. Rats were labeled (tails marked) and handled by the investigator, then gently placed on a wooden platform (14×10.5×3.5 cm) in the experimental chamber (30.5×25×27 cm.) The chamber is equipped with a single house light and white noise generator to mask extraneous sounds. Once the animal stepped off the platform (all 4 paws touching the grid floor where grids are equally spaced every 2 cm), it was picked up by the base of the tail and returned to the home cage and then to the vivarium. On day 2, rats were returned to the laboratory and again acclimated to the experimental area for 30 min. Rats were intraperitoneally administered vehicle or compounds 30 min. prior to testing in a dosage volume of 1 ml/kg. Then the rats were gently placed on the wooden platform and their latency (in sec.) to step-down was recorded. When all four paws touched the grid, a low level 0.28 mA electric shock was delivered for 3 sec. by means of a Coulbourn Instruments grid floor shocker. Rats were immediately removed from the experimental chamber to their home cage when the shock ceased. […] Fifteen minutes later, this procedure was repeated. Rats were then returned to the vivarium. […] The latencies of each drug group on day 3 (24 hrs. following acquisition) was compared to the latencies of the vehicle control group by the non-parametric Mann-Whitney U test.

The test system of another series is NMDA receptor. In words: Stimulation of [3H]TCP binding by NMDA in extensively washed rat cortical membranes. The note with it: glycine 1 μM added to NMDA.
Series [4] can be described thus: T-maze reinforced alternation task in rats (scopolamine-induced deficit). It counts as in vivo, rat (male Wistar). The note with it: i.p. How it is done: Male Wistar rats (Charles River) weighing 450-700 g were used in the T-maze procedure. Rats were housed (3 rats per cage) under standard laboratory conditions in the vivarium where food and water were available ad libitum. During training and testing, animals were transported to the dimly lit test room and acclimated for 30 min. The Lafayette Instruments T-maze consisted of a start box (30×20 cm), an alley way to the choice point (30×20 cm), a choice point area (25×25 cm), and two goal areas (30×20 cm) with a shock grid (grids every 11/2 cm) serving as the floor of the maze. Each session in the maze was controlled by a microprocessor.
Initially, animals were trained to greater than 70% choice accuracy in the maze for five consecutive days each week over a two week period. Following a 10 min. habituation to the maze, training commenced. All reinforced alternation sessions consisted of ten pseudo randomly paired trials. The first trial of each pair was the forced trial where the animal was forced to go to either the left or right goal box, since only one goal box door was open. The second trial was the choice trial where both goal box doors were open and the correct response was to enter the opposite goal to that entered on the previous forced run trial.
Each trial began when the rat was placed in the start box and allowed 15 sec. to enter the appropriate goal box. […] Following a 30 sec. intertrial interval (ITI), the next trial commenced. If during the choice trial, the rat entered the incorrect goal box (same goal entered during the forced trial), the guillotine door was closed and the rat received 5 electric shocks during the first 15 sec. of the 30 sec. ITI. All choices and latencies during the 10 paired trials were recorded by the computer controlled printer.
Animals which met criteria during training ([…]) were considered trained colony animals and were tested every other week. Testing was conducted over 3 consecutive days. Control sessions for baseline responding were conducted on days 1 and 2 so that the mean percentage of correct choices for each animal to qualify for drug testing was set at ≥70% correct choices.
The next time these animals were tested, they were administered pharmacological agents i.p. (at appropriate pretreatment times) in combination with scopolamine to measure effectiveness in reversing scopolamine-induced deficits in choice accuracy.
For statistical analysis, the means of each treatment group (drug+scopolamine) were compared to the mean of both the scopolamine alone group and the control group by the Dunnett's test.

Setting [5] is: read-out: % OF MAXIMAL GLYCINE RESPONSE, concentration 10 μM.
[6] abbreviates: read-out: % OF MAXIMAL GLYCINE RESPONSE

Usually EC50 stands for the midpoint of the concentration-response curve. Usually IC50 stands for the midpoint of a concentration-inhibition curve. The low end stands for greater potency in that assay, the high end for weaker potency in that assay. For the molecule `NCC(=O)Nn1cccc1C(=O)c1cccc(F)c1.O=C(O)/C=C/C(=O)O` [2-amino-N-[2-(3-fluorobenzoyl)-1H-pyrrol-1-yl]acetamide fumarate], the EC50 in series [1] worked out at 0.6 µM. The Emax at 10 µM in series [1] (setting [5]) is 76%. In series [2], the concentration for half-maximal inhibition (IC50) was 4.8 µM. For the same molecule, the “% Change from Control (median latency to step-down)” value (“% Change from Control” for short) is recorded as “+457%” in series [3] (5 mg/kg), “+343%” in series [3] (10 mg/kg) and “+257%” in series [3] (20 mg/kg).
As to `NCC(=O)O` [glycine], in the series with NMDA receptor, the “potentiation of the maximal effect of NMDA on [3H]TCP binding (factor)” value amounted to 1.7.
Consider `Cl.NCC(=O)Nn1cccc1Cl` [2-Amino-N-(2-chloro-1H-pyrrol-1-yl)acetamide Hydrochloride], for which the “% Change from Control” value in series [3] (10 mg/kg) is listed as “+158%”; in series [3] (20 mg/kg), “+25%”; in series [3] (40 mg/kg), “+133%”.
With `CN1[C@@H]2C[C@@H](OC(=O)[C@H](CO)c3ccccc3)C[C@H]1[C@@H]1O[C@@H]12` [Scopolamine], the “choice accuracy (overall responding at chance levels)” value in series [4] (scopolamine 1 mg/kg, 30 min pretreatment) is reported as 50%. Further, in series [4] (scopolamine alone 1 mg/kg), the “Mean % of Correct Choice” value is given as 45%.
Consider `Cl.NCC(=O)Nn1cccc1` [2-Amino-N-1H-pyrrol-1-ylacetamide Hydrochloride], for which the EC50 in series [1] amounted to 92 µM. In series [1] (setting [6]), the Emax at 100 µM worked out at 65%. The IC50 in series [2] worked out at 14.8 µM. Also, the “% Change from Control” value was “+281%” in series [3] (10 mg/kg), “+625%” in series [3] (20 mg/kg) and “+512%” in series [3] (80 mg/kg).
On to `CC(=O)c1cccn1NC(=O)CN` [N-(2-Acetyl-1H-pyrrol-1-yl)-2-aminoacetamide Hydrochloride], for which the EC50 in series [1] is 1.3 µM. Also, the Emax at 10 µM in series [1] (setting [6]) turned out to be 71%. Further, the IC50 in series [2] came to 22.5 µM.
Regarding `COc1ccc(C(=O)c2cccn2NC(=O)CN)cc1` [2-amino-N-[2-(4-methoxybenzoyl)-1H-pyrrol-1-yl]acetamide], the concentration for a half-maximal effect (EC50) in series [1] is 2 µM. Moreover, in series [1] (read-out: % OF MAXIMAL GLYCINE RESPONSE, concentration 100 μM), the Emax at 100 µM came to 89%. This molecule also had an IC50 in series [2] of 6.6 µM.
Turning to `NCC(=O)Nn1cccc1C(=O)c1cccs1` [2-Amino-N-[2-(2-thienylcarbonyl)-1H-pyrrol-1-yl]acetamide Hydrochloride], the concentration for a half-maximal effect (EC50) in series [1] was determined as 0.38 µM. The Emax at 10 µM in series [1] (setting [6]) turned out to be 78%. In series [2], this molecule gave a concentration for half-maximal inhibition (IC50) of 6 µM.
For `NCC(=O)Nn1cccc1C(=O)c1ccccc1F` [2-amino-N-[2-(2-fluorobenzoyl)-1H-pyrrol-1-yl]acetamide hydrobromide hemihydrate], the “Mean % of Correct Choice” value in series [4] (with scopolamine, 1/20 mg/kg (scopolamine/drug)) stood at 64%. Moreover, the EC50 in series [1] was determined as 3.1 µM. Further, the Emax at 10 µM in series [1] (setting [5]) was 77%. The same molecule had a half-inhibitory concentration (IC50) in series [2] of 11.2 µM. For the same molecule, the figures for the “% Change from Control” value in series [3] (10 mg/kg) and in series [3] (20 mg/kg) were “+471%” and “+836%”, respectively.
Turning to `NCC(=O)Nn1c(Cl)ccc1C(=O)c1ccccc1F` [2-amino-N-[5-chloro-2-(2-fluorobenzoyl)-1H-pyrrol-1-yl]acetamide hydrobromide], the 50% effective concentration (EC50) in series [1] stood at 1.7 µM. For the same molecule, the Emax at 30 µM in series [1] (read-out: % OF MAXIMAL GLYCINE RESPONSE, concentration 30 μM) came out at 65%. The same molecule registered an IC50 in series [2] of 6 µM.
Consider `COc1ccccc1C(=O)c1cccn1NC(=O)CN.Cl` [2-amino-N-[2-(2-methoxy-benzoyl)-1H-pyrrol-1-yl]-acetamide hydrochloride], for which the “% Change from Control” value is recorded as “+237%” in series [3] (1.25 mg/kg), “+80%” in series [3] (5 mg/kg) and “+37%” in series [3] (10 mg/kg).
For the molecule `NCC(=O)Nn1cccc1C(=O)c1ccccc1C(F)(F)F` [2-amino-N-[2-(2-trifluoro-methyl)benzoyl)-1H-pyrrol-1-yl]acetamide hydrobromide], the “% Change from Control” value in series [3] (5 mg/kg) is “+900%”; in series [3] (10 mg/kg), “+77%”; in series [3] (20 mg/kg), “+122%”; in series [3] (40 mg/kg), “+33%”.
As for `NCC(=O)Nn1cccc1C(=O)c1ccccc1Cl` [2-amino-N-[2-(2-chloro-benzoyl)-1H-pyrrol-1-yl]-acetamide hydrochloride], in series [1], the EC50 came to 3 µM. In series [1] (setting [6]), the Emax at 10 µM came to 56%. The IC50 in series [2] is 22.5 µM.
Regarding `N[C@@H]1CONC1=O` [D-cycloserine], the “Mean % of Correct Choice” value amounted to 59% in series [4] (with scopolamine, 1/3 mg/kg (scopolamine/drug)) and 61% in series [4] (with scopolamine, 1/10 mg/kg (scopolamine/drug)). In addition, the “% Change from Control” value in series [3] (5 mg/kg) was “+120%”.
